Reference: paper PMC12603070, “A high-throughput screening approach to discover potential colorectal cancer chemotherapeutics: repurposing drugs to identify novel disruptors of 14-3-3 proteins” (Cell Death & Disease, 2025)
Counter-ions that a name gives are not always drawn. Like-named read-outs stand apart in the source and are kept apart here. Numbered stars: 1 amine (or outer) side, 2 acyl side, 3 side chain; on linkers, the order of the positions; unused ones are H or OH. Bridge positions count the residues as written; N and C are the ends. Square brackets hold non-standard residues; d marks the D form. Peptide text beside a SMILES is read from it. * marks the point of attachment. pTerphenylCO(4''-OnC5H11) = CCCCCOc1ccc(-c2ccc(-c3ccc(C(=O)*)cc3)cc2)cc1; Orn(4R-OH,5R-OH) = O=C([C@H](C[C@@H](O)[C@@H](O)N[*:3])N[*:1])[*:2]; hTyr(3S-OH,4S-OH) = N[C@H](C(=O)O)[C@H](O)[C@@H](O)c1ccc(O)cc1; Pro(3S-OH,4S-Me) = C[C@H]1CN[C@H](C(=O)O)[C@H]1O; Hyp = O=C(O)[C@@H]1C[C@@H](O)CN1

How the values were obtained:
HT-29 cells = test: Hoechst/propidium iodide cell death assay in HT-29; assay type: cell-based, human; settings: for cytotoxicity at 20 µM: Homo sapiens; for Percentage of cell death % 24h HT-29: 20 µM; for Percentage of cell death % 48h, HT-29: 20 μM; for %Cell death HT-29: time not given
Description: (§1) A high-content imaging system (PerkinElmer; Operetta CLS), was used to quantify cell death and apoptosis by calculating the number of propidium iodide-positive cells relative to Hoechst-positive cells, and the number of Annexin V-positive cells relative to Hoechst-positive cells, respectively.

NIH-3T3 cells = test: Hoechst/propidium iodide cell death assay in NIH-3T3; assay type: cell-based; settings: for cytotoxicity at 20 µM: Mus musculus, NIH3T3, 24 h, read-out: Percentage of cell death % 24h NIH3t3; for Percentage of cell death % 24h NIH3t3: 20 µM
Description: as §1

Caco-2 cells = assay type: cell-based; settings: for Percentage of cell death % 24h CACO-2: 20 µM; for Percentage of cell death % 48h, Caco-2: 20 μM
Description: as §1

[1] = target: T1, 14-3-3ζ:BAD-112-136F interactions (Homo sapiens, UniProt P63104); test: BRET sensor screen for disruption of 14-3-3ζ-Rluc8:BAD-112-136F-mCitrine in living NIH-3T3 cells; assay type: cell-based, murine; set-up: BRET reduction on NIH-3T3: unit not given here; settings: for inhibition at 20 µM: NIH3T3, 3 h, read-out: BRET reduction on NIH-3T3
T1 construct: expressed in transfected cells; host or cells: NIH-3T3 fibroblasts, bi-directional pBI-CMV1 plasmid
T1 sequence (P63104 1-245): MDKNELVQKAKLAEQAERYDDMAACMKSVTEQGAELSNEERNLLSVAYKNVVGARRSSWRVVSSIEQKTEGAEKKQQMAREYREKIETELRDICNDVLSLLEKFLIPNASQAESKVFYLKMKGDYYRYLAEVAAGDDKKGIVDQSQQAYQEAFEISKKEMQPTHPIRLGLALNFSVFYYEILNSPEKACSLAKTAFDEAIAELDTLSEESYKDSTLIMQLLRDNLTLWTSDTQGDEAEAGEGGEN
Experimental: The Z’-score, which evaluates the robustness of an HTS assay readout, was calculated according to standard protocols. For the HTS, 384-well plates were coated with 100 μg/mL poly-L-ornithine (Sigma, Missouri, United States; #P3655) overnight at 37 °C, followed by rinsing with sterilized water. NIH-3T3 cells were transfected with the BRET sensor two days prior to experimentation, followed by replating onto the pre-coated 384-well plates at a density of 20,000 cells/well. After 24 h of incubation at 37 °C, growth media was replaced by Krebs buffer (pH 7.4).

[2] = HT-29, 24 h, read-out: Percentage of cell death % 24h HT-29
[3] = HT-29, 48 h, read-out: Percentage of cell death % 48h, HT-29
[4] = NIH-3T3 cells, hits from the primary screen
[5] = NIH-3T3 expressing BRET sensor, 20 µM, 3 h

Compound	cytotoxicity at 20 µM (HT-29 cells; [2])	cytotoxicity at 20 µM (HT-29 cells; [3])	cytotoxicity at 20 µM (NIH-3T3 cells)	Percentage of cell death % 48h, NIH3T3 (NIH-3T3 cells)	Percentage of cell death % 24h CACO-2 (Caco-2 cells)	Percentage of cell death % 48h, Caco-2 (Caco-2 cells)	Percentage of cell death % 24h HT-29 (HT-29 cells)	Percentage of cell death % 48h, HT-29 (HT-29 cells)	Percentage of cell death % 24h NIH3t3 (NIH-3T3 cells)	inhibition at 20 µM [1]	BRET reduction on NIH-3T3 [1, 4]	%Cell death HT-29 (HT-29 cells)	%Cell death Caco-2 (Caco-2 cells)	BRET reduction on NIH-3T3 [1, 5]	%Cell death Caco-2 (Caco-2 cells; time not given, text says 48 h)
CCCCCCCCCCCCCCCC[n+]1ccccc1 [Cetylpyridinium Chloride]	27.2%	76.9%	81.9%	74.7179%	22.2457%	63.7687%	–	–	–	–	–	–	–	–	–
Clc1ccc(CO/N=C(\Cn2ccnc2)c2ccc(Cl)cc2Cl)c(Cl)c1.O=[N+]([O-])O [Oxiconazole (nitrate)]	–	–	–	4.864%	8.851%	7.056%	3.543%	5.935%	5.3556%	–	–	–	–	–	–
C[C@H]1O[C@@H](O[C@H]2CC[C@@]3(C)[C@@H](CC[C@]4(C)[C@@H]3C=C[C@]35OC[C@@]6(CCC(C)(C)C[C@H]63)[C@@H](O)C[C@]54C)[C@]2(C)CO)[C@H](O)[C@@H](O[C@@H]2O[C@H](CO)[C@@H](O)[C@H](O)[C@H]2O)[C@H]1O [Saikosaponin A]	93.8%	87.6%	80.7%	80.787%	–	–	–	–	–	53.8%	53.7827	87.6%	1.2%	–	–
Cc1ccc(C(=O)Nc2ccc(CN3CCN(C)CC3)c(C(F)(F)F)c2)cc1C#Cc1cnc2cccnn12 [Ponatinib (AP24534), Ponatinib]	56.7%	83.2%	73.5%	54.2208%	28.4678%	42.5244%	–	–	–	44.7%	44.6783	–	–	–	–
Oc1cc(Cl)ccc1Oc1ccc(Cl)cc1Cl [Triclosan]	20.3%	21.6%	58.2%	20.8092%	23.0449%	14.8508%	–	–	–	35.6%	35.6098	–	–	–	–
C=CCc1ccc(O)c(-c2cc(CC=C)ccc2O)c1 [Magnolol]	15.8%	20.3%	15.7%	6.55%	16.7853%	10.8986%	–	–	–	33.2%	33.2336	–	–	–	–
CCCCCOc1ccc(-c2ccc(-c3ccc(C(=O)N[C@H]4C[C@@H](O)[C@@H](O)NC(=O)[C@@H]5[C@@H](O)[C@@H](C)CN5C(=O)[C@H]([C@@H](C)O)NC(=O)[C@H]([C@H](O)[C@@H](O)c5ccc(O)cc5)NC(=O)[C@@H]5C[C@@H](O)CN5C(=O)[C@H]([C@@H](C)O)NC4=O)cc3)cc2)cc1 [Anidulafungin] ({pTerphenylCO(4''-OnC5H11)}-[Orn(4R-OH,5R-OH)]T[Hyp][hTyr(3S-OH,4S-OH)]T[Pro(3S-OH,4S-Me)]; lactam 1-C)	4.73%	7.05%	33.6%	12.0742%	1.705%	1.424%	–	–	–	27%	27.0241	–	–	–	–
Ivermectin	–	–	–	70.901%	4.453%	5.173%	6.036%	78.9396%	38.0218%	–	41.4556	78.9%	–	41.4556	5.2%
C[C@@H](NCCCc1cccc(C(F)(F)F)c1)c1cccc2ccccc12 [Cinacalcet HCl]	–	–	–	69.2945%	64.4357%	76.6269%	35.6614%	79.6038%	81.0537%	–	50.3473	–	–	50.3473	–
